Experimental data taken from ChEMBL document CHEMBL1137112, “4-Acylamino-6-arylfuro[2,3-d]pyrimidines: potent and selective glycogen synthase kinase-3 inhibitors” (Bioorg Med Chem Lett, 2004).

Legend:
[1] = biological target: Vascular endothelial growth factor receptor 2 (Homo sapiens, UniProt P35968); assay: Inhibition of Vascular endothelial growth factor receptor 2 kinase
[2] = biological target: Cyclin-dependent kinase 2 (Homo sapiens, UniProt P24941); assay: Inhibition of cyclin-dependent kinase 2
[3] = biological target: Glycogen synthase kinase-3 beta (Homo sapiens, UniProt P49841); assay: Inhibition of human Glycogen synthase kinase-3 beta
L6 = assay: Potency of compound in glycogen accumulation in L6 cells; type: functional, cell-based; conditions: Rattus norvegicus

Chain of Glycogen synthase kinase-3 beta (P49841 whole entry): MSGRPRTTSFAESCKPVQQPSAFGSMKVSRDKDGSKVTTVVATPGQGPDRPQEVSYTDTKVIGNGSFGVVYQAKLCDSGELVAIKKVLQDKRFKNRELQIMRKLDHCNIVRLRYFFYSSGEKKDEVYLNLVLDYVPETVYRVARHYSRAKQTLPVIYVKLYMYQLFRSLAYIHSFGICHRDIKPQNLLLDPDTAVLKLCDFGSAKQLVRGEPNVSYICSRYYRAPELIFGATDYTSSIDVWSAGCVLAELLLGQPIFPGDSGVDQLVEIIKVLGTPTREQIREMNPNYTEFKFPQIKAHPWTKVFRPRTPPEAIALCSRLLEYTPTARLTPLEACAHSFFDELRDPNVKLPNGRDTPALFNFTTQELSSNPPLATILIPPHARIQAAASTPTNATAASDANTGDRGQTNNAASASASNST
Chain of Vascular endothelial growth factor receptor 2 (P35968 whole entry): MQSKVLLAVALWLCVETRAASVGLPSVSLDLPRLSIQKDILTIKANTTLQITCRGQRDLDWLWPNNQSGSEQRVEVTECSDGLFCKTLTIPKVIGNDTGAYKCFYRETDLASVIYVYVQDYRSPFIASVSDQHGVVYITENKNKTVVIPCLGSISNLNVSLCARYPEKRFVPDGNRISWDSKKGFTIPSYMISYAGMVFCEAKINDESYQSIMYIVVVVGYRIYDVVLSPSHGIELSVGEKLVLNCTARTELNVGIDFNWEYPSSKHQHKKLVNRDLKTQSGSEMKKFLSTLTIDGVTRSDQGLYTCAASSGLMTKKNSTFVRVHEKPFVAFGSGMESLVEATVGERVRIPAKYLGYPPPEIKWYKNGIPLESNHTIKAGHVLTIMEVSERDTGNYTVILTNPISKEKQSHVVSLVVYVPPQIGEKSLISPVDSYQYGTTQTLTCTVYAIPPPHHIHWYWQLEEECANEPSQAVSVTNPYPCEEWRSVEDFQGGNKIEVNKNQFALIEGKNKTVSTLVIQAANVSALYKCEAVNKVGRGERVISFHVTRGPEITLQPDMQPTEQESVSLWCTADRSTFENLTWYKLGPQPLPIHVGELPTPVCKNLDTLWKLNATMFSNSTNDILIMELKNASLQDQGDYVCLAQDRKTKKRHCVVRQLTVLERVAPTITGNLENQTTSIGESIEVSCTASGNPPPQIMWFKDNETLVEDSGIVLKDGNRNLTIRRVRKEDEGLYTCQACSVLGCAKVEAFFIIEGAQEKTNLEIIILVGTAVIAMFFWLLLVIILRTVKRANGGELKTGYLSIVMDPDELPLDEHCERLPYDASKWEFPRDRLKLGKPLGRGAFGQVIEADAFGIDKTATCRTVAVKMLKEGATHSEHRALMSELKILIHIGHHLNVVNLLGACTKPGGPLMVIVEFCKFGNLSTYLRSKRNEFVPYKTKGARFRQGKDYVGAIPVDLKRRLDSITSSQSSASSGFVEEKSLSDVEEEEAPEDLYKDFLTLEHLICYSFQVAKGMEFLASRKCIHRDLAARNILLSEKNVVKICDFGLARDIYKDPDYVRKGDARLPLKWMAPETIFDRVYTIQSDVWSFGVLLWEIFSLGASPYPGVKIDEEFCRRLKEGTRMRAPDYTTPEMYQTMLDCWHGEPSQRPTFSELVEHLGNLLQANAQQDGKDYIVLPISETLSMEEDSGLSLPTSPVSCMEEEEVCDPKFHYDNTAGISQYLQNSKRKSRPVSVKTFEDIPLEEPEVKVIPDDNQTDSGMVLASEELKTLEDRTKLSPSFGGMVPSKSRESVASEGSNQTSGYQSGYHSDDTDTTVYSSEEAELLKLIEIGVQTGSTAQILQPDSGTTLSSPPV

IC50 [1] | IC50 [2] | IC50 [3] | Structure (SMILES) | EC50 (L6)
> 48 µM | > 20 µM | > 34 µM | COc1ccc(-c2cc3c(NC(=O)N4CCOCC4)ncnc3o2)cc1 | –
12.3 µM | > 21 µM | 1.95 µM | COc1ccc(-c2cc3c(NC(=O)N4CCCC4)ncnc3o2)cc1 | –
1.02 µM | > 19 µM | 0.03 µM | COc1ccc(-c2cc3c(NC(=O)C4CCCC4)ncnc3o2)cc1 | –
> 20 µM | > 20 µM | 0.24 µM | Cc1ccc(-c2cc3c(NC(=O)C4CCCC4)ncnc3o2)cc1 | –
> 24 µM | 0.45 µM | 0.005 µM | O=C(Nc1ncnc2oc(-c3cccnc3)cc12)C1CCCC1 | 0.39 µM
> 47 µM | > 20 µM | 0.537 µM | COc1ccc(-c2cc3c(NC(=O)CCSC)ncnc3o2)cc1 | –
> 48 µM | > 19 µM | 0.32 µM | COc1ccc(-c2cc3c(NC(=O)CC4CCCC4)ncnc3o2)cc1 | –
2.04 µM | > 20 µM | 1 µM | O=C(Nc1ncnc2oc(-c3ccc(Cl)cc3)cc12)C1CC1 | –
> 23 µM | > 19 µM | 0.02 µM | O=C(Nc1ncnc2oc(-c3ccccc3)cc12)C1CCCC1 | > 10 µM
> 48 µM | > 21 µM | 0.13 µM | COc1ccc(-c2cc3c(NC(=O)C(C)C)ncnc3o2)cc1 | –
> 20 µM | > 20 µM | 0.55 µM | O=C(Nc1ncnc2oc(-c3ccc(Cl)cc3)cc12)C1CCCC1 | –
2.04 µM | > 19 µM | 0.575 µM | O=C(Nc1ncnc2oc(-c3ccc(F)cc3)cc12)C1CC1 | –
> 48 µM | > 20 µM | 2.4 µM | COc1ccc(-c2cc3c(NC(=O)c4ccco4)ncnc3o2)cc1 | –
> 19 µM | > 19 µM | 0.219 µM | O=C(Nc1ncnc2oc(-c3ccc(F)cc3)cc12)C1CCCC1 | –
> 48 µM | > 20 µM | 1.82 µM | COc1ccc(-c2cc3c(NC(=O)C4CCCCC4)ncnc3o2)cc1 | –
0.83 µM | > 21 µM | 0.17 µM | O=C(Nc1ncnc2oc(-c3ccccc3)cc12)C1CC1 | –
> 48 µM | > 19 µM | 0.437 µM | CCCCCC(=O)Nc1ncnc2oc(-c3ccc(OC)cc3)cc12 | –
3.24 µM | 0.44 µM | 0.005 µM | O=C(Nc1ncnc2oc(-c3cccnc3)cc12)C1CC1 | 0.74 µM
– | – | 0.08 µM | COc1ccc(-c2oc3ncnc(N)c3c2-c2cccnc2)cc1 | –
3.55 µM | > 20 µM | 0.316 µM | COc1ccc(-c2cc3c(NC(=O)C4CC4)ncnc3o2)cc1 | –
21.9 µM | > 21 µM | > 35 µM | COc1ccc(-c2cc3c(NC(=O)c4cccc(F)c4)ncnc3o2)cc1 | –
0.63 µM | > 21 µM | 0.617 µM | Cc1ccc(-c2cc3c(NC(=O)C4CC4)ncnc3o2)cc1 [GW819230X] | –
